From patent publication US5622934A, “Peptides with an insulin-like action” (priority 1991, dated 1997)

Tests used:
[1] = system: rat fat cells; test: Lipogenesis: conversion of glucose to toluene-soluble products in isolated rat fat cells; type: cell-based; conditions: for Lipogenesis % of the max. HI action: 90 min at 37° C., D-[3-3H]glucose, human insulin (HI) = 100%; for Concentration [μM] at which 25% of the max. HI action is reached (lipogenesis): 25% of the maximum human insulin action
Procedure: (§1) The biological activity of the peptides of formula I according to the invention is determined with the aid of preparatively isolated rat fat cells and diaphragm fragments.
(§2) Rat fat cells were prepared as follows: Fatty tissue of the epididymis (Wistar rat, 160-180 g, no feed restriction) is digested with collagenase and the resulting isolated fat cells are washed several times by flotation.
This test determines the insulin-stimulatable conversion of glucose to toluene-soluble products (triglycerides, phospholipids, fatty acids), requiring the glucose transport and the triglyceride (glycerol-3-P synthesis, esterification)/phospholipid/fatty acid synthesis, including the insulin signal transmission cascade.
Rat fat cells in KRH buffer are incubated for 90 min at 37° C. with D-[3-^3 H]glucose (0.2 mM or 1 mM final concentration) in the presence or absence of insulin or peptides according to the invention. By the addition of a toluene-soluble scintillation cocktail, the cells are digested and the lipids separated from water-soluble products and the incubation medium. After phase separation, the radioactivity incorporated into lipids is determined by scintillation measurement directly without removal of the aqueous phase ([^3 H]lipid [dpm×10^-3 ]).
(§3) The action of human insulin (HI) is given a value of 100%. The concentration data of the peptides according to the invention used are based on the concentration at which 25% or 20% of the maximum HI action is reached.

[2] = system: plasma membrane vesicles from rat fat cells; test: Glucose transport activity in isolated plasma membrane vesicles; type: biochemical; conditions: for Concentration [μM] at which 20% of the max. HI action is reached (glucose transport): 20% of the maximum human insulin action; for Glucose transport % of the max. HI action: 30 min at 25° C., then 10 sec with 50 μM D-[3-3H]glucose, human insulin (HI) = 100%
Procedure: as §1, §2
C) Glucose transport activity
Isolated plasma membrane vesicles are obtained from rat fat cells by washing the fat cells twice in homogenization buffer (20 mM trihydroxyaminomethane (Tris)/HCl, pH 7.4, 1 mM, 4° C., EDTA, 0.25M sucrose) and then homogenizing them in 20 ml of the same buffer (glass homogenizer with Teflon pestle).
The homogenate is centrifuged (16,000×g, 15 min) and the sediment is suspended in the same buffer and centrifuged again. The sediment is suspended in 5 ml of homogenization buffer and layered onto a sucrose cushion (1.12M sucrose, 20 mM Tris/HCl, pH 7.4, 1 mM EDTA); after centrifugation (100,000×g, 70 min), the interphase containing the plasma membrane vesicles is removed with a syringe, diluted with 45 ml of buffer and centrifuged again (48,000×g, 45 min). The sediment is suspended in 10 ml of buffer, centrifuged again and resuspended in 3 ml of buffer.
Isolated plasma membrane vesicles are incubated for 30 min at 25° C. in the presence or absence of insulin or the peptides according to the invention. The vesicles are then incubated for 10 sec at 25° C. with 50 μM D-[3-^3 H]glucose and […] of the same specific radioactivity. The mixtures are rapidly filtered with suction on nitrocellulose filters. The filters are washed copiously and dried. Their radioactivity is determined by liquid scintillation measurement. The specific transport (D-[^3 H]glucose/L-[^4 C]glucose [dpm×10^-3 ]) is calculated as the difference between the [^3 H] and [^14 C] radioactivity.
as §3

[3] = system: rat diaphragm fragments; test: Glycogenesis: glycogen synthesis in rat diaphragm fragments; type: cell-based; conditions: for Concentration [μM] at which 25% of the max. HI action is reached (glycogenesis): 25% of the maximum human insulin action; for Glycogenesis % of the max. HI action: 15 min at 37° C., 50 μM D-[U-14C]glucose, human insulin (HI) = 100%
Procedure: as §1
Preparation of rat diaphragm fragments: Small tissue fragments (5 mm diameter) are punched out of hemidiaphragms (Wistar rat, 60-70 g, no feed restriction) which have been washed several times.
This test determines the insulin-stimulatable glycogen synthesis in muscle cells, comprising the glucose transport via the plasma membrane and the conversion of the glucose to glycogen, including the functional insulin signal transmission cascade.
Diaphragm fragments are incubated for 15 min at 37° C. in Krebs-Ringer-Henseleit buffer (KRH buffer) with 50 μM D-[U-^14 C]glucose in the presence or absence of insulin or the peptides according to the invention. After the medium has been filtered with suction, the tissue fragments are intensively washed, frozen at -70° C. and then homogenized at 2° C. in a Polytron pulverizer. The homogenate is centrifuged (2000 g) and the supernatant is pipetted onto filter paper. To determine the glycogen formed, the filters are transferred into trichloroacetic acid (TCA) (5%), washed with ethanol and acetone and dried and their radioactivity is determined via scintillation measurement ([^14 C]glycogen [dpm×10^-3 ]).
as §3

H--L--Cys--L--Tyr--NH--CH2 --CH2 OH [Example 6]
Lipogenesis % of the max. HI action [1]: 17% | Concentration [μM] at which 20% of the max. HI action is reached (glucose transport) [2]: 750 µM | Glucose transport % of the max. HI action [2]: 24% | Concentration [μM] at which 25% of the max. HI action is reached (glycogenesis) [3]: 480 µM | Glycogenesis % of the max. HI action [3]: 32%

H--L--Cys--L--Asn--NH--CH2 --CH2 OH [Example 5]
Lipogenesis % of the max. HI action [1]: 21% | Concentration [μM] at which 20% of the max. HI action is reached (glucose transport) [2]: 600 µM | Glucose transport % of the max. HI action [2]: 25% | Glycogenesis % of the max. HI action [3]: 16%

H--L--Tyr--L--Cys--L--Asn--NH--(CH2)2 --O--PO(OH)--O--6Manα1--2Manα1--O--CH3 [Example 15]
Concentration [μM] at which 25% of the max. HI action is reached (lipogenesis) [1]: 142 µM | Lipogenesis % of the max. HI action [1]: 35% | Concentration [μM] at which 20% of the max. HI action is reached (glucose transport) [2]: 122 µM | Glucose transport % of the max. HI action [2]: 32% | Concentration [μM] at which 25% of the max. HI action is reached (glycogenesis) [3]: 139 µM | Glycogenesis % of the max. HI action [3]: 29%

H--L--Tyr--L--Cys--L--Asn--NH--CH2 --CH2 --NH2 [Example 10]
Concentration [μM] at which 25% of the max. HI action is reached (lipogenesis) [1]: 330 µM | Lipogenesis % of the max. HI action [1]: 30% | Concentration [μM] at which 20% of the max. HI action is reached (glucose transport) [2]: 300 µM | Glucose transport % of the max. HI action [2]: 42% | Concentration [μM] at which 25% of the max. HI action is reached (glycogenesis) [3]: 450 µM | Glycogenesis % of the max. HI action [3]: 25%

H--L--Tyr--L--Cys--L--Asn--OH [Example 12]
Concentration [μM] at which 25% of the max. HI action is reached (lipogenesis) [1]: 750 µM | Lipogenesis % of the max. HI action [1]: 26% | Concentration [μM] at which 20% of the max. HI action is reached (glucose transport) [2]: 880 µM | Glucose transport % of the max. HI action [2]: 20% | Glycogenesis % of the max. HI action [3]: 15%

Acetyl--L--Tyr--L--Cys--L--Asn--NH--CH2 --CH2 OH [Example 11]
Concentration [μM] at which 25% of the max. HI action is reached (lipogenesis) [1]: 200 µM | Lipogenesis % of the max. HI action [1]: 36% | Concentration [μM] at which 20% of the max. HI action is reached (glucose transport) [2]: 260 µM | Glucose transport % of the max. HI action [2]: 40% | Concentration [μM] at which 25% of the max. HI action is reached (glycogenesis) [3]: 240 µM | Glycogenesis % of the max. HI action [3]: 45%

H--L--Asn--L--Cys--L--Tyr--NH--CH2 --CH2 OH [Example 3]
Concentration [μM] at which 25% of the max. HI action is reached (lipogenesis) [1]: 375 µM | Lipogenesis % of the max. HI action [1]: 31% | Concentration [μM] at which 20% of the max. HI action is reached (glucose transport) [2]: 225 µM | Glucose transport % of the max. HI action [2]: 38% | Concentration [μM] at which 25% of the max. HI action is reached (glycogenesis) [3]: 285 µM | Glycogenesis % of the max. HI action [3]: 42%

H--L--Tyr--L--Cys--NH--CH2 --CH2 --NH2 [Example 2]
Concentration [μM] at which 25% of the max. HI action is reached (lipogenesis) [1]: 500 µM | Lipogenesis % of the max. HI action [1]: 32% | Concentration [μM] at which 20% of the max. HI action is reached (glucose transport) [2]: 350 µM | Glucose transport % of the max. HI action [2]: 40% | Concentration [μM] at which 25% of the max. HI action is reached (glycogenesis) [3]: 650 µM | Glycogenesis % of the max. HI action [3]: 28%

H--L--Tyr--L--Cys--L--Asn--NH--CH2 --CH2 --NH--gluconic acid [Example 9]
Lipogenesis % of the max. HI action [1]: 12% | Glucose transport % of the max. HI action [2]: 15% | Glycogenesis % of the max. HI action [3]: 11%

H--L--Tyr--L--Cys--NH--(CH2)4 --NH2 [Example 7]
Lipogenesis % of the max. HI action [1]: 18% | Glucose transport % of the max. HI action [2]: 10% | Glycogenesis % of the max. HI action [3]: 2%

L--Tyr--L--Cys--L--Asn--NH--(CH2)2 --O--PO(OH)--O--6Manα1--2--Manα1--6Manα1--O--CH3 [Example 16]
Concentration [μM] at which 25% of the max. HI action is reached (lipogenesis) [1]: 125 µM | Lipogenesis % of the max. HI action [1]: 24% | Concentration [μM] at which 20% of the max. HI action is reached (glucose transport) [2]: 152 µM | Glucose transport % of the max. HI action [2]: 29% | Concentration [μM] at which 25% of the max. HI action is reached (glycogenesis) [3]: 135 µM | Glycogenesis % of the max. HI action [3]: 25%

H--(3--(thien--2--yl)--L--Ala)--L--Cys--L--Asn--OH [Example 8]
Concentration [μM] at which 25% of the max. HI action is reached (lipogenesis) [1]: 450 µM | Lipogenesis % of the max. HI action [1]: 26% | Concentration [μM] at which 20% of the max. HI action is reached (glucose transport) [2]: 410 µM | Glucose transport % of the max. HI action [2]: 25% | Concentration [μM] at which 25% of the max. HI action is reached (glycogenesis) [3]: 375 µM | Glycogenesis % of the max. HI action [3]: 31%

H--D--Tyr--L--Cys--L--Asn--NH--CH2 --CH2 OH [Example 4]
Concentration [μM] at which 25% of the max. HI action is reached (lipogenesis) [1]: 410 µM | Lipogenesis % of the max. HI action [1]: 31% | Concentration [μM] at which 20% of the max. HI action is reached (glucose transport) [2]: 260 µM | Glucose transport % of the max. HI action [2]: 38% | Glycogenesis % of the max. HI action [3]: 23%

H--L--Tyr--L--Cys--L--Asn--NH--(CH2)2 --O--PO(OH)--O(CH2)2 --CN [Example 13]
Concentration [μM] at which 25% of the max. HI action is reached (lipogenesis) [1]: 120 µM | Lipogenesis % of the max. HI action [1]: 33% | Concentration [μM] at which 20% of the max. HI action is reached (glucose transport) [2]: 140 µM | Glucose transport % of the max. HI action [2]: 36% | Concentration [μM] at which 25% of the max. HI action is reached (glycogenesis) [3]: 100 µM | Glycogenesis % of the max. HI action [3]: 31%
